Laboratory results from patent US20260007666A1 (INAYA THERAPEUTICS, INC., priority 2022, published 2026).

Assay: Rat pharmacokinetics, IV imatinib mesylate vs IT imatinib free base/cyclodextrin (Example 9)
Format: in vivo, Sprague Dawley rats
Conditions: IV data, 60 min collection period
Method: Lung tissue and blood were collected for analysis.
Experimental Design and Execution: In brief, after the animals were transferred to study, all animals were randomly assigned to treatment groups per the study design below. Animals were treated either via intravenous (IV) administration of formulation R1, or via intratracheal (IT) administration for formulation R2 of the test article.
Averages for each time point are reported for groups/time points that have a minimum of 2 animals.
The Therapeutic Advantage (Rd) in Table 8 was calculated using the following equation: […]

Cc1ccc(NC(=O)c2ccc(CN3CCN(C)CC3)cc2)cc1Nc1nccc(-c2cccnc2)n1 [imatinib free base, imatinib]
tissue distribution lung vs plasma: preferentially accumulates in the lung tissue
